Earlier results as cited in US4713385A, “Alkoxy and dialkoxyalkyl esters of dihydrolysergic acid and related compounds useful as 5HT receptor antagonists” (Eli Lilly and Company, priority 1985, dated 1987).

Tests used:
[1] = biological target: vascular histaminergic receptors
[2] = biological target: vascular dopaminergic receptors
[3] = biological target: vascular alpha adrenergic receptors
5HT2 receptors [4] = conditions: effect mediated by 5HT2 receptors; in words
5HT2 receptors [5] = conditions: Garbrecht compounds; in words

CC(O)C(C)OC(=O)[C@@H]1C[C@@H]2c3cccc4c3c(cn4C(C)C)C[C@H]2N(C)C1 (stereo partly drawn) [LY53857, 1-isopropyl-6-methyl-8β-(1-methyl-2-hydroxy)propoxycarbonyl-5R-ergoline]
Kd ([1]; Cohen et al. J.P.E.T., 227, 327 (1983), read-out: Kdissoc (vascular histaminergic receptors)): ~10 µM | affinity for vascular histaminergic receptors ([1]; in words): minimal affinity | Kd ([2]; Cohen et al. J.P.E.T., 227, 327 (1983), read-out: Kdissoc (vascular dopaminergic receptors)): ~10 µM | affinity for vascular dopaminergic receptors ([2]; in words): minimal affinity | Kd ([3]; Cohen et al. J.P.E.T., 227, 327 (1983), read-out: Kdissoc (vascular alpha adrenergic receptors)): ~10 µM | affinity for vascular alpha adrenergic receptors ([3]; in words): minimal affinity | antagonism of vascular contraction to serotonin (5HT2 receptors [4]): potent antagonist of vascular contraction to serotonin | peripheral serotonin antagonist activity against 5HT2 receptors (5HT2 receptors [5]): most active peripheral serotonin antagonist
